Measured values: ChEMBL document CHEMBL5576160, “N-Substituted Pyrrole-Based Heterocycles as Broad-Spectrum Filoviral Entry Inhibitors” (J Med Chem, 2024)
pEC50: −log10 of the molar value.

What was measured:
Marburgvirus [1] = assay: Antiviral activity against pseudotyped Marburgvirus Angola infected in human A549 cells assessed as inhibition of Pseudoviral entry incubated for 40 hrs; format: functional, organism-based; settings: Orthomarburgvirus, A549, 40 h
[2] = Selectivity index, ratio of CC50 for cytotoxicity against human A549 cells to EC50 for antiviral activity against pseudotyped EBOV Mayinga infected in human A549 cells assessed as inhibition of Pseudoviral entry; format: toxicity, cell-based; settings: read-out: Ratio CC50/EC50
A549 = assay: Cytotoxicity against human A549 cells assessed as as reduction in cell viability incubated for 48 hrs by celltiter-glo assay; format: functional
Ebolavirus [3] = assay: Antiviral activity against pseudotyped EBOV Mayinga infected in human A549 cells assessed as inhibition of Pseudoviral entry incubated for 40 hrs; format: functional, organism-based; settings: Orthoebolavirus, A549, 40 h
[4] = Selectivity index, ratio of CC50 for cytotoxicity against human A549 cells to EC50 for antiviral activity against pseudotyped Marburgvirus Angola infected in human A549 cells assessed as inhibition of Pseudoviral entry; format: toxicity, cell-based; settings: read-out: Ratio CC50/EC50
Bundibugyo virus = assay: Antiviral activity against pseudotyped Bundibugyo virus infected in human A549 cells assessed as inhibition of viral growth; format: functional, organism-based
Ebolavirus [5] = assay: Antiviral activity against EBOV Mayinga infected in human HeLa cells assessed as inhibition of viral replication incubated for 40 hrs; format: functional, organism-based; settings: Orthoebolavirus
Sudan ebolavirus [6] = assay: Antiviral activity against pseudotyped Sudan ebolavirus Gulu infected in human HeLa cells assessed as inhibition of viral replication; format: functional, organism-based
Marburgvirus [7] = assay: Antiviral activity against Marburgvirus Angola infected in human Huh-7 cells assessed as inhibition of viral replication; format: functional, organism-based; settings: Orthomarburgvirus
Sudan ebolavirus [8] = assay: Antiviral activity against pseudotyped Sudan ebolavirus Gulu infected in human A549 cells assessed as inhibition of viral growth; format: functional, organism-based
Tai Forest ebolavirus = assay: Antiviral activity against pseudotyped Tai Forest ebolavirus infected in human A549 cells assessed as inhibition of viral growth; format: functional, organism-based
[9] = Stability in human plasma measured after 60 mins; format: ADME, cell-free; settings: read-out: Stability
[10] = Stability in mouse plasma measured after 60 mins; format: ADME, cell-free; settings: read-out: Stability

Row | Structure (SMILES) | pEC50 (Marburgvirus [1]) | selectivity ratio [2] | CC50 (A549) | pEC50 (Ebolavirus [3]) | selectivity ratio [4] | pEC50 (Bundibugyo virus) | pEC50 (Ebolavirus [5]) | pEC50 (Sudan ebolavirus [6]) | pEC50 (Marburgvirus [7]) | pEC50 (Sudan ebolavirus [8]) | pEC50 (Tai Forest ebolavirus) | remaining at 1 h [9] | remaining at 1 h [10]
1 | O=C(Nc1ccc(N2CCOCC2)cc1)c1cc2occc2n1Cc1ccc(Cl)cc1 | < 4.00 | 1 | > 100 µM | < 4.00 | 1 |  |  |  |  |  |  |  | 
2 | CCOc1ncc(NC(=O)c2cc3occc3n2Cc2ccc(Cl)cc2)cc1F | < 4.00 | 41 | > 100 µM | 5.61 | 1 |  |  |  |  |  |  |  | 
3 | COc1ccc(Cn2c(C(=O)N3CCC(N(C)C)CC3)cc3ccccc32)cc1 | 5.11 |  | ~100 µM | 6.27 | 13 | 5.86 | 6.07 | ~4.70 | 5.37 | 5.91 | 5.28 |  | 
4 | CN(C)CCNC(=O)c1cc2sccc2n1Cc1ccc(Cl)cc1 | 5.50 | 19 |  | 5.66 | 13 |  |  |  |  |  |  |  | 
5 | CN(C)CCNC(=O)c1cc2occc2n1C | < 4.00 | 1 |  | < 4.00 | 1 |  |  |  |  |  |  |  | 
6 | CN1CCN(CCCNC(=O)c2cc3occc3n2Cc2ccc(Cl)cc2)CC1 | 5.11 | 42 |  | 5.73 | 10 |  |  |  |  |  |  |  | 
7 | O=C(NCCCn1ccnc1)c1cc2occc2n1Cc1ccc(Cl)cc1 | 4.88 | 16 |  | 5.20 | 7.6 |  |  |  |  |  |  |  | 
8 | CN(C)C1CCN(C(=O)c2cc3occc3n2C(=O)OCc2ccccc2)CC1 | 4.53 | > 60 |  | 5.77 | > 3.4 |  |  |  |  |  |  |  | 
9 | CN(C)C1CCN(C(=O)CN(Cc2ccccc2)c2ccccc2)CC1 | < 4.00 | 9.4 |  | 4.97 | < 1 |  |  |  |  |  |  |  | 
10 | CN(C)CCNC(=O)c1cc2occc2n1Cc1ccc(F)cc1 | 4.97 | > 38 |  | 5.58 | > 93 |  |  |  |  |  |  |  | 
11 | CN(C)CCNC(=O)c1cc2ccccc2n1Cc1ccc(-c2ccccc2)cc1 | 5.51 | 5.9 |  | 5.56 | 14 |  |  |  |  |  |  |  | 
12 | CN(C)C1CCN(C(=O)c2cc3occc3n2Cc2ccc(F)cc2)CC1 | 4.94 | > 25 |  | 5.41 | > 8.8 |  |  |  |  |  |  |  | 
13 | CN(C)C1CCN(C(=O)c2cc3ccccc3n2Cc2ccccc2)CC1 | 5.02 | ~180 | ~100 µM | 6.26 | 9.6 |  |  |  |  |  |  | 100% | 100%
14 | CC(C)N1CCN(C(=O)c2cc3occc3n2Cc2cccc(C(F)(F)F)c2)CC1 | 4.65 | 29 |  | 5.46 | 4.4 |  |  |  |  |  |  |  | 
15 | CN(C)CCNC(=O)c1cc2ccccc2n1Cc1ccc(Cl)cc1 | 5.41 | 8.4 |  | 5.46 | 7.5 | 5.58 |  |  |  | 6.08 | 5.43 |  | 
16 | CN(C)CCNC(=O)c1cc2occc2n1Cc1cccc(C(F)(F)F)c1 | 5.37 | 32 |  | 5.77 | 13 |  |  |  |  |  |  |  | 
17 | CN(C)CCNC(=O)c1cc2ccccc2n1Cc1ccc(F)cc1 | 5.38 | 16 |  | 5.47 | 8.9 |  |  |  |  |  |  |  | 
18 | CN(C)C1CCN(C(=O)c2cc3ccccc3n2Cc2ccc(-c3ccccc3)cc2)CC1 | 5.70 | 14 |  | 5.97 | 7.2 |  |  |  |  |  |  |  | 
19 | CN(C)C1CCN(C(=O)c2cc3sccc3n2Cc2ccc(Cl)cc2)CC1 | 5.43 | 61 |  | 6.05 | 15 | 5.72 |  |  |  | 6.00 | 5.38 |  | 
20 | CN(C)C1CCN(C(=O)c2cc3ccccc3n2C)CC1 | < 4.00 | > 6.1 |  | 4.78 | < 1 |  |  |  |  |  |  |  | 
21 | CN(C)CCNC(=O)c1cc2occc2n1Cc1ccccc1 | 4.59 | 22 |  | 5.35 | 3.9 |  |  |  |  |  |  |  | 
22 | CN(C)C1CCN(C(=O)c2cn(Cc3ccc(F)cc3)c3ccccc23)CC1 | 4.96 | 30 |  | 5.60 | 6.9 |  |  |  |  |  |  |  | 
23 | CC1CCN(c2ccc(NC(=O)c3cc4occc4n3Cc3ccc(Cl)cc3)cc2C(F)(F)F)CC1 | 4.87 | 25 | > 100 µM | 5.39 | 7.4 |  |  |  |  |  |  |  | 
24 | O=C(c1cc2ccccc2n1Cc1ccccc1)N1CCCCC1 | < 4.00 | 11 |  | 5.04 | 11 |  |  |  |  |  |  |  | 

Row | Structure (SMILES) | pEC50 (Marburgvirus [1]) | selectivity ratio [2] | CC50 (A549) | pEC50 (Ebolavirus [3]) | selectivity ratio [4] | pEC50 (Bundibugyo virus) | pEC50 (Ebolavirus [5]) | pEC50 (Sudan ebolavirus [6]) | pEC50 (Marburgvirus [7]) | pEC50 (Sudan ebolavirus [8]) | pEC50 (Tai Forest ebolavirus) | remaining at 1 h [9] | remaining at 1 h [10]
25 | CC(C)N1CCN(C(=O)c2cc3sccc3n2Cc2ccc(Cl)cc2)CC1 | 4.48 | 17 |  | 5.23 | 3.1 |  |  |  |  |  |  |  | 
26 | CN(C)C1CCN(C(=O)c2cccn2Cc2ccccc2)CC1 | 4.75 | 90 |  | 5.95 | 5.6 |  |  |  |  |  |  |  | 
27 | CN(C)CCNC(=O)c1cn(Cc2ccc(F)cc2)c2ccccc12 | 5.19 | 21 |  | 5.52 | 8.9 |  |  |  |  |  |  |  | 
28 | CN1CCCN(C(=O)c2cc3sccc3n2Cc2ccc(Cl)cc2)CC1 | 4.97 | 24 |  | 5.38 | 9.3 |  |  |  |  |  |  |  | 
29 | O=C(NCCCn1ccnc1)c1cc2occc2n1Cc1cccc(C(F)(F)F)c1 | 5.01 | 13 |  | 5.36 | 5.9 |  |  |  |  |  |  |  | 
30 | CCN(CC)CCNC(=O)c1cc2occc2n1Cc1ccc(Cl)cc1 | 5.44 | 38 |  | 5.79 | 17 |  |  |  |  |  |  |  | 
31 | O=C(c1cc2sccc2n1Cc1ccc(Cl)cc1)N1CCN(C2CCCCC2)CC1 | 4.86 | 4.9 |  | 4.96 | 3.8 |  |  |  |  |  |  |  | 
32 | CN(C)C1CCN(C(=O)c2cc3ccccc3n2Cc2cccnc2)CC1 | 4.41 | > 19 |  | 5.28 | 2.6 |  |  |  |  |  |  |  | 
33 | CN1CCCN(C(=O)c2cc3occc3n2Cc2ccc(Cl)cc2)CC1 | 4.98 | 71 |  | 5.85 | 9.6 |  |  |  |  |  |  |  | 
34 | CN1CCCN(C(=O)c2cc3occc3n2Cc2cccc(C(F)(F)F)c2)CC1 | 5.06 | 40 |  | 5.76 | 8.1 |  |  |  |  |  |  |  | 
35 | CN(C)CCNC(=O)c1cc2occc2n1Cc1ccc(Cl)c(C(F)(F)F)c1 | 5.50 | 17 |  | 5.72 | 10 |  |  |  |  |  |  |  | 
36 | CN(C)CCCNC(=O)c1cc2occc2n1Cc1ccc(Cl)cc1 | 5.26 | 36 |  | 5.70 | 13 |  |  |  |  |  |  |  | 
37 | CN(C)C1CCN(C(=O)c2cc3ccccc3n2Cc2ccncc2)CC1 | 5.42 | > 6.2 |  | 3.79 | 27 |  |  |  |  |  |  |  | 
38 | O=C(NCCN1CCC1)c1cc2occc2n1Cc1cccc(C(F)(F)F)c1 | 5.21 | 20 |  | 5.71 | 6.2 |  |  |  |  |  |  |  | 
39 | CN(C)C1CCN(C(=O)c2cc3ccccc3n2Cc2ccc(F)cc2)CC1 | 5.30 | 100 |  | 6.34 | 13 | 6.45 | < 4.70 | 6.00 | < 4.70 | 6.26 | 5.57 |  | 
40 | CN(C)CC1CN(C(=O)c2cc3occc3n2Cc2ccc(Cl)cc2)C1 | 5.34 | 46 |  | 5.91 | 12 |  |  |  |  |  |  |  | 
41 | CN(C)CCNC(=O)c1cc2occc2n1C(=O)OCc1ccccc1 | 4.51 | > 12 |  | 5.09 | > 3.1 |  |  |  |  |  |  |  | 
42 | CN(C)CCNC(=O)c1cc2ccccc2n1Cc1ccccc1 | 5.17 | 24 |  | 5.56 | 9.5 |  |  |  |  |  |  |  | 
43 | CN(C)C1CCN(C(=O)c2cc3ccccc3n2Cc2ccc(Cl)cc2)CC1 | 5.17 | 44 |  | 5.86 | < 1 |  |  |  |  | 6.05 | 5.31 |  | 
44 | CN1CCN(C(=O)c2cc3sccc3n2Cc2ccc(Cl)cc2)CC1 | 4.61 | 10 |  | 5.01 | 4.1 |  |  |  |  |  |  |  | 
45 | CN(C)CCNC(=O)c1cn(Cc2ccccc2)c2ccccc12 | 4.95 | 21 |  | 5.48 | 6.1 |  |  |  |  |  |  |  | 
46 | O=C(Nc1ccc(N2CCC(F)(F)CC2)cc1)c1cc2occc2n1Cc1ccc(Cl)cc1 | < 4.00 | 8.6 | > 100 µM | 4.93 | 1 | 4.44 |  |  |  | 5.62 | < 4.00 |  | 
47 | CN(C)C1CCN(C(=O)c2cc3occc3n2Cc2cccc(C(F)(F)F)c2)CC1 | 5.01 | 67 | ~100 µM | 5.82 | 10 |  |  |  |  |  |  |  | 
